Biological target: T1, Ceramide transfer protein (Homo sapiens, UniProt Q9Y5P4)
T1 sequence (Q9Y5P4 whole entry): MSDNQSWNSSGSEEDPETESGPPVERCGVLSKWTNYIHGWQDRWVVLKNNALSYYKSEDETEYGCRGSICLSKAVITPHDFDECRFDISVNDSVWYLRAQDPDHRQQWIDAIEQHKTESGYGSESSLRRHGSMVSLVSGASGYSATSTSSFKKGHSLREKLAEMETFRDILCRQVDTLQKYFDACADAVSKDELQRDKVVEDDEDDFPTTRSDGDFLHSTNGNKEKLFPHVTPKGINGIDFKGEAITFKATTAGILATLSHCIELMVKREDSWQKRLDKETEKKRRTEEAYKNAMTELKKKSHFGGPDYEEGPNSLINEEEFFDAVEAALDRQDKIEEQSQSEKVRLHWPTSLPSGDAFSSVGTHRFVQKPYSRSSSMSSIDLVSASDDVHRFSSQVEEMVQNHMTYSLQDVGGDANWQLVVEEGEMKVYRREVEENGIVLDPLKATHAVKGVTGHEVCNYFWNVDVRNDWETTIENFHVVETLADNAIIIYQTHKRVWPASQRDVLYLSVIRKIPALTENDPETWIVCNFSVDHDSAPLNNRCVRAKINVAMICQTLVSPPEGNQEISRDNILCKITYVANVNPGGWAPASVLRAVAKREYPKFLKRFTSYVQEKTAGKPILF
Assay: Binding affinity to histidine-tagged human recombinant […] containing CERT START domain pre-incubated for 30 mins before biotinylated ceramide probe addition and measured after 18 hrs post probe addition by TR-FRET binding assay

EC50 [µM]	Structure (SMILES)
4	CCCCCCCCCCCC(=O)N[C@@H](CO)C[C@H](O)c1ccccc1
25	CCCCCCCCCCCC(=O)N[C@H](CO)C[C@H](O)c1ccccc1
22	CCCCCCCCCCCC(=O)N[C@@H](CO)C[C@@H](O)c1ccccc1
159	CCCCCCCCCCCC(=O)N[C@H](CO)C[C@@H](O)c1ccccc1

Reference: ChEMBL document CHEMBL3400071, “The CERT antagonist HPA-12: first practical synthesis and individual binding evaluation of the four stereoisomers” (Bioorg Med Chem, 2015)
